The source of these data is ChEMBL document CHEMBL1649214, “Antimalarial activity of tigecycline, a novel glycylcycline antibiotic” (Antimicrob Agents Chemother, 2009).

The subject of assay [1] is Plasmodium falciparum. Description: Ratio of IC50 for Plasmodium falciparum isolates after 72 hrs to IC50 for Plasmodium falciparum isolates after 24 hrs by ELISA based histidine-rich protein 2 in vitro drug susceptibility assay. The class given is functional.
In assay [2] the test system is Plasmodium falciparum. Description: Antimalarial activity against Plasmodium falciparum isolates assessed as parasite growth inhibition after 72 hrs by ELISA based histidine-rich protein 2 in vitro drug susceptibility assay. The assay is classed as functional, organism-based.

Consider `C[C@H]1c2cccc(O)c2C(=O)C2=C(O)[C@]3(O)C(=O)C(C(N)=O)=C(O)[C@@H](N(C)C)[C@@H]3[C@@H](O)[C@@H]21.O` [DOXYCYCLINE], for which, in assay [1], the “Ratio IC50” value was determined as 13. For the same compound, in assay [2], the half-maximal inhibitory concentration (IC50) amounted to 4280 nM, the IC90 was 19400 nM and the 99% effect concentration (IC99) came to 27.2 µM.

`CN(C)c1cc(NC(=O)CNC(C)(C)C)c(O)c2c1C[C@H]1C[C@H]3[C@H](N(C)C)C(O)=C(C(N)=O)C(=O)[C@@]3(O)C(O)=C1C2=O` [TIGECYCLINE]: the “Ratio IC50” value in assay [1] turned out to be 49. In assay [2], the IC50 was 699 nM, the IC90 stood at 5910 nM and the 99% effect concentration (IC99) was 12.4 µM.

With `CC[C@H]1OC(=O)[C@H](C)[C@@H](O[C@H]2C[C@@](C)(OC)[C@@H](O)[C@H](C)O2)[C@H](C)[C@@H](O[C@@H]2O[C@H](C)C[C@H](N(C)C)[C@H]2O)[C@](C)(O)C[C@@H](C)CN(C)[C@H](C)[C@@H](O)[C@]1(C)O` [AZITHROMYCIN], in assay [2], the half-maximal inhibitory concentration (IC50) was determined as 4310 nM, the IC90 is 18400 nM and the IC99 turned out to be 26.7 µM.

On to `C=C[C@H]1CN2CC[C@H]1C[C@H]2[C@H](O)c1ccnc2ccc(OC)cc12` [QUININE], for which, in assay [2], the IC50 was 106 nM, the IC90 was determined as 441 nM and the IC99 came to 0.673 µM.

Regarding `C[C@H]1[C@@H](O)O[C@@H]2O[C@@]3(C)CC[C@H]4[C@H](C)CC[C@@H]1[C@@]24OO3` [ARTENIMOL], in assay [2], the IC50 came out at 0.77 nM, the IC90 worked out at 2.76 nM and the IC99 turned out to be 0.004 µM.

As for `CCN(CC)CCCC(C)Nc1ccnc2cc(Cl)ccc12` (configuration not stated) [CHLOROQUINE], in assay [2], the IC90 amounted to 303 nM and the IC99 was determined as 0.436 µM.

Consider `OC(c1cc(C(F)(F)F)nc2c(C(F)(F)F)cccc12)C1CCCCN1` (configuration not stated) [MEFLOQUINE], for which, in assay [2], the IC50 came to 14.4 nM, the IC90 came out at 64 nM and the IC99 is 0.106 µM.
